# Data taken from paper PMC6374954, “Design, synthesis, and biological evaluation of novel derivatives of dithiodiglycolic acid prepared via oxidative coupling of thiols” (Journal of Enzyme Inhibition and Medicinal Chemistry, 2019).
# Read-outs that look alike come from different tables or passages of the source.
# How the values were obtained:
# TrxR1 [1] = settings: cited from earlier work
# TrxR1 [2] = biological target: T1, TrxR1 (Homo sapiens, UniProt Q16881); experiment: TrxR inhibition assay (DTNB), SH-SY5Y cell lysate; type: biochemical; settings: for IC50: neuroblastoma (SHSY5Y) lysate, mean ± SEM (n = 3)
# T1 construct: For TrxR assay, lysate from SH-SY5Y cells and rat liver were used; endogenous in cells; host or cells: SH-SY5Y human neuroblastoma cells (10,000 x g supernatant of the homogenate)
# T1 sequence (Q16881 151-649 limits assumed): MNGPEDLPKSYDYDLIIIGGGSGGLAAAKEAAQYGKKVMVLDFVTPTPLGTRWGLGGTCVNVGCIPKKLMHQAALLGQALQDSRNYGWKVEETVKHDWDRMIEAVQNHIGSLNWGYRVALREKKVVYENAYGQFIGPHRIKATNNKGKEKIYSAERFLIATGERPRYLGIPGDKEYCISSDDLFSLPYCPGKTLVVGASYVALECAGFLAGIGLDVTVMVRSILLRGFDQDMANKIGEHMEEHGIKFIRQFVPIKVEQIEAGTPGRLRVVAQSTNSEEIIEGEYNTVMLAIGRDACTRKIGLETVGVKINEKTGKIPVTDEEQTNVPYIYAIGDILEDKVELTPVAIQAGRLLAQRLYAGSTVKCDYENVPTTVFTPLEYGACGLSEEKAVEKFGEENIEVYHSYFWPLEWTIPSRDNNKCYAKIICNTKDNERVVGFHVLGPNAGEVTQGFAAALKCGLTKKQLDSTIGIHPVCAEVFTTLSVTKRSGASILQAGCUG
# Experimental: (§3) For TrxR assay, lysate from SH-SY5Y cells and rat liver were used. SHSY5Y cells were washed twice with phosphate buffer solution (PBS) and harvested from the flask with a scraper. Cells were homogenised in ice-cold 50 mM potassium phosphate buffer (pH 7.4), containing 1 mM EDTA, with Ultra Turrax T25 (Ikawerk, Janke and Kunkel Inc., Staufen, Germany). The homogenates were centrifuged at 10,000 × g for 15 min at 4 °C. The protein concentrations of the supernatants were determined using a Bio-Rad protein assay kit (Bio-Rad Laboratories, USA). TrxR activity was assayed using 5,5-dithio-bis-(2-nitrobenzoic acid) (DTNB, Sigma-Aldrich, USA) as substrate[21]. The reactions were run on a 96-well plates, final volume of 100 µl in 50 mM potassium phosphate buffer (pH 7.0), containing 50 µg of the cell lysate proteins, 1-mM EDTA, 50 mM KCl, 0.2 mg/ml bovine serum albumin, 0.25 mM NADPH (Acros Organics, USA). Reaction mixture was incubated for 15 min at room temperature in plate shaker (PST-60HL-4, BioSan, Riga, Latvia); afterwards DTNB was added to the total concentration of 2.5 mM. Enzyme kinetics was monitored on a Tecan Infinite1000 microplate reader, by measuring the increase in absorbance at 412 nm for 20 min. The background TrxR-independent reduction of DTNB in the cell lysates, as determined in the presence of aurothiomalate (200 µM), was subtracted from each value[22]. Reaction mixture with rat liver lysate contained 35 µg of proteins, 1 mM EDTA, 50 mM KCl, 0.2 mg/ml bovine serum albumin, 0.25 mM NADPH, and 2.5 mM DTNB. Reactions with rat liver lysate were run in the same manner as cell lysates.
# TrxR1 [3] = biological target: T2, TrxR1 (Rattus norvegicus, UniProt O89049); experiment: TrxR inhibition assay (DTNB), rat liver (hepatocyte) lysate
# T2 sequence (O89049 1-499): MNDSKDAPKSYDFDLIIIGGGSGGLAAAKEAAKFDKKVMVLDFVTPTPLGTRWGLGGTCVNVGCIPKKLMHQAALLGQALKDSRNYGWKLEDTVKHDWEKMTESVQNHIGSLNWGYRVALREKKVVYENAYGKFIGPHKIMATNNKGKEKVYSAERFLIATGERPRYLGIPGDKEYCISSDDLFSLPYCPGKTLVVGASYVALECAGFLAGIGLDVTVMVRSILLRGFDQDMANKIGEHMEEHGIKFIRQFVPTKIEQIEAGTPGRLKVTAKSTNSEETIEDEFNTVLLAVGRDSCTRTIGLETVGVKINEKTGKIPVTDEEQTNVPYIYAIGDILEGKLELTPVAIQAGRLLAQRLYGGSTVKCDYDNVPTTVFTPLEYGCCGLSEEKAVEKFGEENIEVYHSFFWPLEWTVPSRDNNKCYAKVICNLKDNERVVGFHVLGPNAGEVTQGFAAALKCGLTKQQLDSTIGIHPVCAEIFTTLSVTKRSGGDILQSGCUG
# Experimental: as §3
# TrxR1 [4] = biological target: T2, TrxR1
# Experimental: as §3
# U87 cells = experiment: Cytotoxicity assay (MTT), U87; type: cell-based, human; settings: for CC50: U87 cells, 72 h, MTT, mean ± SEM (n = 3)
# Experimental: (§1) Human neuroblastoma cells (SH-SY5Y) were grown in 1:1 mixture of Eagle's Minimum Essential Medium and F12 Medium (Sigma) supplemented with 10% foetal bovine serum (Sigma). Human keratinocytes (HaCaT) were grown in DMEM, supplemented with 10% foetal bovine serum, 2 mM L-glutamine, 5000 U/ml penicillin, and 5 mg/ml streptomycin. Human glioblastoma cell (U87-MG) were grown in Minimum Essential Media (MEM), containing 10% foetal bovine serum, 2 mM L-glutamine, 5,000 U/ml penicillin, and 5 mg/ml streptomycin. All cell lines were obtained from American Type Culture Collection (ATCC, Rockville, MD). All cell lines were grown at 37 °C in a humidified 5% CO2 atmosphere.
# (§2) Cells grown in 25 cm^2 tissue flasks were trypsinized, seeded into flat-bottomed adherent 96-well cell culture plates in appropriate medium (SH-SY5Y 12,000 cells/well, U87-MG 4000 cells/well, HaCaT 2000 cells/well) and incubated overnight; afterwards the cells were exposed to different concentrations of the tested compounds for 72 h. Cell viability was measured by MTT assay. Briefly, after incubation with the compounds, medium containing 0.2 mg/ml MTT was added. After incubation (3 h, 37 °C, 5% CO2), the MTT-containing medium was removed, and 200 µl of dimethyl sulfoxide (DMSO) was immediately added to each sample. The samples were assessed at 540 nm on LKB 5060–006 Microplate Reader (Vienna, Austria) microplate reader. The half-maximal inhibitory concentration (IC50) of each compound was calculated using Graph Pad Prism® 6.0 (GraphPad Software, Inc., USA).
# HaCaT cells = experiment: Cytotoxicity assay (MTT), HaCaT; type: cell-based, human; settings: 72 h, mean ± SEM (n = 3)
# Experimental: as §1, §2
# SHSY5Y cells = experiment: Cytotoxicity assay (MTT), SH-SY5Y; type: cell-based, human; settings: 72 h, mean ± SEM (n = 3)
# Experimental: as §1, §2
# TrxR = biological target: TrxR; parameters: method as in PMID 27977313; settings: read-out: Ki value toward the enzyme; cited from earlier work
# [5] = Cytotoxicity assay (MTT), U87; type: cell-based, human; settings: human, U87-MG glioblastoma cells; U87 cells; 72 h; MTT; mean ± SEM (n = 3)
# Experimental: as §1, §2
# [6] = Cytotoxicity assay (MTT), HaCaT; type: cell-based, human; settings: human, HaCaT keratinocytes, HaCaT cells, mean ± SEM (n = 3)
# Experimental: as §1, §2
# [7] = Cytotoxicity assay (MTT), SH-SY5Y; type: cell-based, human; settings: human, SH-SY5Y neuroblastoma cells, SHSY5Y cells, mean ± SEM (n = 3)
# Experimental: as §1, §2
# [8] = read-out: TrxR IC50 Hepatocyte lysate, mean ± SEM (n = 3)
# [9] = TrxR IC50 Hepatocyte lysate, mean ± SEM (n = 3)
compound,measurement,setting,value
"CN1C(=O)[C@]23CC4=CC=C[C@H](O)[C@H]4N2C(=O)[C@@]1(CO)SS3 [Compound 6, gliotoxin]",Km,TrxR1 [1]; read-out: Km values,16.9 µM
COc1ccc(CNC(=O)CSSCC(=O)NCc2ccc(OC)cc2)cc1 [Compound 11e],IC50,TrxR1 [2],> 200 µM
same,IC50,TrxR1 [3]; [8],> 200 µM
CN1CCN(C(=O)CSSCC(=O)N2CCN(C)CC2)CC1 [Compound 11f],IC50,TrxR1 [2],> 200 µM
same,IC50,TrxR1 [3]; [8],> 200 µM
"COC(=O)CSSCC(=O)OC [Compound 17, Dimethyl 2,2′-disulfanediyldiacetate]",inhibitory activity against neuroblastoma (SHSY5Y) cell lysate (in words),TrxR1 [2],virtually no activity
same,IC50,TrxR1 [2],> 200 µM
same,IC50,TrxR1 [3]; [9],> 200 µM
"CN1C(=O)[C@@]23C[C@]4([C@]56C[C@@]78SS[C@@](CO)(C(=O)N7[C@H]5Nc5ccccc56)N(C)C8=O)c5ccccc5N[C@@H]4N2C(=O)[C@]1(CO)SS3 [Compound 5, chaetocin]",Km,"TrxR1 [1]; TrxR1, substrate-competitive inhibition profile, read-out: Km values",4.6 µM
"O=C(CSSCC(=O)N1CCCC1)N1CCCC1 [Compound 11a, 2,2′-Disulfanediylbis(1-(pyrrolidin-1-yl)ethan-1-one)]",IC50,TrxR1 [2],> 200 µM
same,IC50,TrxR1 [3]; [9],170 ± 54.2 µM
"O=C([O-])CSSCC(=O)[O-].[Na+].[Na+] [Compound 15, 2,2′-disulfanediyldiacetic acid disodium salt, reference compound]",inhibitory activity against neuroblastoma (SHSY5Y) cell lysate (in words),TrxR1 [2],completely devoid of inhibitory activity
same,IC50,TrxR1 [2],> 200 µM
same,activity against liver cell lysate (in words),TrxR1 [4],completely devoid of inhibitory activity
CC(C)(C)NC(=O)CSSCC(=O)NC(C)(C)C [Compound 11g],CC50,U87 cells,125 ± 15.6 µM
same,inhibitory activity against neuroblastoma (SHSY5Y) cell lysate (in words),TrxR1 [2],virtually no activity
same,IC50,TrxR1 [2],> 200 µM
same,CC50,HaCaT cells,43 ± 2.9 µM
same,CC50,SHSY5Y cells,174 ± 18.3 µM
same,IC50,TrxR1 [3]; [8],22.2 ± 3.1 µM
CCC(C)SSc1ncc[nH]1 (stereo not shown) [Compound 2],Ki,TrxR,31 µM
O=C(CSSCC(=O)N1CCOCC1)N1CCOCC1 [Compound 11c],IC50,TrxR1 [2],190 ± 78.4 µM
same,IC50,TrxR1 [3]; [8],182 ± 32.2 µM
CCCNC(=O)CSSCC(=O)NCCC [Compound 11b],times more active against U87 cell line compared to the other three compounds,"U87 cells; U87, versus 11d, 11g, 12a",2–3 times
same,CC50,U87 cells,54.6 ± 3.4 µM
same,IC50,TrxR1 [2],> 200 µM
same,CC50,HaCaT cells,58.4 ± 5 µM
same,CC50,SHSY5Y cells,220 ± 15.3 µM
same,IC50,TrxR1 [3]; [8],26.5 ± 2.9 µM
"O=S(=O)(O)CCSSCCS(=O)(=O)O [Compound 4, disodium 2,2′-dithio-bis-ethane sulphonate]",Km,"TrxR1 [1]; TrxR substrate analogue, read-out: Km value",72 µM
O=C(CSSCC(=O)NC1CC1)NC1CC1 [Compound 11d],CC50,U87 cells,180 ± 12.6 µM
same,IC50,TrxR1 [2],63.6 ± 27.5 µM
same,CC50,HaCaT cells,69 ± 3.4 µM
same,CC50,SHSY5Y cells,202 ± 12 µM
same,IC50,TrxR1 [3]; [8],34.7 ± 9.1 µM
"CCCNC(=O)CSSCC(=O)N1CCOCC1 [Compound 12a, 2-((2-Morpholino-2-oxoethyl)disulfanyl)-N-propylacetamide]",CC50 at 72 h,[5],187 ± 15.9 µM
same,IC50,TrxR1 [2],44.4 ± 15.1 µM
same,CC50 at 72 h,[6],71.8 ± 6.9 µM
same,CC50 at 72 h,[7],176 ± 13.4 µM
same,IC50,TrxR1 [3]; [9],45.6 ± 6.8 µM
COc1ccc(NC(=O)CSSCC(=O)Nc2ccc(OC)cc2)cc1 [Compound 11i],IC50,TrxR1 [2],> 200 µM
same,IC50,TrxR1 [3]; [8],> 200 µM
"COC(=O)CSSCC(=O)Nc1ccc(F)cc1 [Compound 13a, Methyl 2-((2-((4-fluorophenyl)amino)-2-oxoethyl)disulfanyl)acetate]",IC50,TrxR1 [2],186 ± 83.8 µM
same,IC50,TrxR1 [3]; [9],> 200 µM
"O=C(O)CSSCC(=O)O [Compound 14, 2,2′-disulfanediyldiacetic acid, reference compound]",inhibitory activity against neuroblastoma (SHSY5Y) cell lysate (in words),TrxR1 [2],virtually no activity
same,IC50,TrxR1 [2],> 200 µM
same,IC50,TrxR1 [3]; [9],> 200 µM
NC(=O)CSSCC(N)=O [Compound 11j],inhibitory activity against neuroblastoma (SHSY5Y) cell lysate (in words),TrxR1 [2],virtually no activity
same,IC50,TrxR1 [2],> 200 µM
same,IC50,TrxR1 [3]; [8],90.4 ± 18.7 µM
O=C(CSSCC(=O)Nc1ccc(F)cc1)Nc1ccc(F)cc1 [Compound 11h],IC50,TrxR1 [2],> 200 µM
same,IC50,TrxR1 [3]; [8],> 200 µM
